Broadly, the MIC is the lowest concentration that inhibits growth of the organism.

Where “and” joins values, the source holds several entries; their conditions need not be identical. Identical values can stand only once. Like-named read-outs stand apart in the source and are kept apart here.

The record followed here is patent US9034352B2, “Microbicide combinations containing silver” (Rohm and Haas Company, priority 2006, dated 2015).

Assay in all cases: Synergy test, high resolution MIC microtiter plate assay
What all share (assay type): cell-based

The test system of assay [1] is Aspergillus niger (A. niger—ATCC 16404). The following applies: for MIC of component acting alone (end point): A. niger, Ag-polymer on active silver ion basis; for MIC: Aspergillus niger, read-out: MIC of component acting alone (end point). An excerpt: (§1) One measure of synergism is the industrially accepted method described by Kull, F. C.; Eisman, P. C.; Sylwestrowicz, H. D. and Mayer, R. L., in Applied Microbiology 9:538-541 (1961), using the ratio determined by the formula: Ca/CA+Cb/CB=Synergy Index (“SI”) wherein:
(§2) CA=concentration of compound A (first component) in ppm, acting alone, which produced an end point (MIC of Compound A).
(§3) Ca=concentration of compound A in ppm, in the mixture, which produced an end point.
(§4) CB=concentration of compound B (second component) in ppm, acting alone, which produced an end point (MIC of Compound B).
(§5) Cb=concentration of compound B in ppm, in the mixture, which produced an end point.
(§6) When the sum of Ca/CA and Cb/CB is greater than one, antagonism is indicated. […] The lower the SI, the greater the synergy shown by that particular mixture. The minimum inhibitory concentration (MIC) of an antimicrobial compound is the lowest concentration tested under a specific set of conditions that prevents the growth of added microorganisms.
(§7) Synergy tests were conducted using standard microtiter plate assays with media designed for optimal growth of the test microorganism. Soybean Casein Digest Broth (Tryptic Soy Broth, TSB medium) or minimal salt medium supplemented with 0.2% glucose and 0.1% yeast extract (M9GY medium) was used for testing bacteria; Potato Dextrose Broth (PDB medium) was used for testing yeast and mold. In this method, a wide range of combinations of microbicides was tested by conducting high resolution MIC assays in the presence of various concentrations of the biocides. High resolution MICs were determined by adding varying amounts of microbicide to one column of a microtitre plate and doing subsequent ten-fold dilutions using an automated liquid handling system.
(§8) The bacteria were used at a concentration of about 1-6×10^6 bacteria per mL and the yeast and mold at 1-5×10^5 fungi per mL. These microorganisms are representative of natural contaminants in many consumer and industrial applications. […] (yeast and mold) or 30° C. (bacteria).

For assay [2], the system named is Pseudomonas aeruginosa (P. aeruginosa—ATCC #15442). The following applies: for MIC of component acting alone (end point): P. aeruginosa, Ag-polymer on active silver ion basis.
Excerpt: as §1, §2, §3, §4, §5, §6, §7, §8

Assay [3] relates to Staphylococcus aureus (S. aureus—ATCC #6538). The following applies: for MIC of component acting alone (end point): S. aureus, Ag-polymer on active silver ion basis; for MIC: Staphylococcus aureus, read-out: MIC of component acting alone (end point).
Excerpt: as §1, §2, §3, §4, §5, §6, §7, §8

Assay [4] relates to Candida albicans (C. albicans—ATCC 10231). The conditions noted are these: for MIC of component acting alone (end point): C. albicans, Ag-polymer on active silver ion basis; for Ca (Component A in combination): Hydrogen Peroxide combined with Ag-polymer formulation; for MIC: Candida albicans, read-out: MIC of component acting alone (end point).
Excerpt: as §1, §2, §3, §4, §5, §6, §7
(§9) […]. The bacteria were used at a concentration of about 1-6×10^6 bacteria per mL and the yeast and mold at 1-5×10^5 fungi per mL. These microorganisms are representative of natural contaminants in many consumer and industrial applications. […] (yeast and mold) or 30° C. (bacteria).
(§10) The end point values in the following examples for the silver-polymer complex are reported on an active silver ion basis.

Assay [5] relates to Esherichia coli (E. coli—ATCC #8739). The conditions noted are these: Ag-polymer on active silver ion basis.
Excerpt: as §1, §2, §3, §4, §5, §6, §7, §9, §10

Setting [6] is: Table 13, 3-Iodo-2-propynyl butylcarbamate alone, contact time 24 hour.
Where [7] appears, read: Table 13, 3-Iodo-2-propynyl butylcarbamate alone, contact time 48 hour.
The mark [8] stands for this setting: 5-Chloro-2-(2,4-dichlorophenoxy)phenol combined with Ag-polymer formulation, contact time 48 hour.
Where [9] appears, read: Table 12, 5-Chloro-2-(2,4-dichlorophenoxy)phenol alone, contact time 24 hour.
[10] abbreviates: Table 12, 5-Chloro-2-(2,4-dichlorophenoxy)phenol alone, contact time 48 hour.
Where [11] appears, read: Table 11, Glutaraldehyde alone, contact time 24 hour.
Setting [12] is: Table 11, Glutaraldehyde alone, contact time 48 hour.
Where [13] appears, read: Hydrogen Peroxide combined with Ag-polymer formulation, contact time 24 hour.
Setting [14] is: Table 9, Hydrogen Peroxide alone, contact time 24 hour.
[15] abbreviates: Table 9, Hydrogen Peroxide alone, contact time 48 hour.
Where [16] appears, read: Sodium hypochlorite (as Free Cl2) combined with Ag-polymer formulation, contact time 48 hour.
Setting [17] is: Table 10, Sodium hypochlorite alone, as Free Cl2, contact time 24 hour.
The mark [18] stands for this setting: Table 10, Sodium hypochlorite alone, as Free Cl2, contact time 48 hour.

`CCCCNC(=O)OCC#CI` [3-Iodo-2-propynyl butylcarbamate]: the “Ca (Component A alone)” value came out at 0.4 in assay [1] (Table 13, 3-Iodo-2-propynyl butylcarbamate alone, contact time 3 days); 0.8 in assay [1] (Table 13, 3-Iodo-2-propynyl butylcarbamate alone, contact time 7 days); 1050 in assay [2] (setting [6]); 1300 in assay [2] (setting [7]); 14 in assay [3] (setting [6]); 14 in assay [3] (setting [7]). Besides, the “Ca (Component A in combination)” value in assay [2] (3-Iodo-2-propynyl butylcarbamate combined with Ag-polymer formulation, contact time 24 hour) amounted to 850; in assay [2] (3-Iodo-2-propynyl butylcarbamate combined with Ag-polymer formulation, contact time 48 hour), 1050.

As to `Oc1cc(Cl)ccc1Oc1ccc(Cl)cc1Cl` [5-Chloro-2-(2,4-dichlorophenoxy)phenol], the “Ca (Component A in combination)” value in assay [1] (5-Chloro-2-(2,4-dichlorophenoxy)phenol combined with Ag-polymer formulation, contact time 3 days) is 7; in assay [2] (5-Chloro-2-(2,4-dichlorophenoxy)phenol combined with Ag-polymer formulation, contact time 24 hour) it was 20; in assay [2] (setting [8]) it was 30 and 20; in assay [3] (setting [8]), 9 and 7. For the same compound, the “Ca (Component A alone)” value is reported as 9 in assay [1] (Table 12, 5-Chloro-2-(2,4-dichlorophenoxy)phenol alone, contact time 3 days); 30 in assay [1] (Table 12, 5-Chloro-2-(2,4-dichlorophenoxy)phenol alone, contact time 7 days); 30 in assay [2] (setting [9]); 43 in assay [2] (setting [10]); 9 in assay [3] (setting [9]); 11 in assay [3] (setting [10]).

On to `O=c1[nH]sc2ccccc12` [Benzisothiazolin-3-one, reference compound], for which the “MIC of component acting alone (end point)” value (“MIC … (end point)” below) in assay [1] (contact time 3 days) was 43 ppm; in assay [1] (contact time 7 days), 53 ppm; in assay [2] (contact time 24 hour), 4 ppm; in assay [2] (contact time 48 hour), 7 ppm; in assay [3] (contact time 24 hour) it was 20 ppm; in assay [3] (contact time 48 hour), 20 ppm. Moreover, the “MIC … (end point)” value in assay [4] (contact time 24 hour) and in assay [4] (contact time 48 hour) was 30 ppm in each case.

For the compound `O=CCCCC=O` [Glutaraldehyde], the “Ca (Component A in combination)” value in assay [1] (Glutaraldehyde combined with Ag-polymer formulation, contact time 3 days) is 425; in assay [1] (Glutaraldehyde combined with Ag-polymer formulation, contact time 7 days) it was 525; in assay [2] (Glutaraldehyde combined with Ag-polymer formulation, contact time 24 hour) it was 13; in assay [2] (Glutaraldehyde combined with Ag-polymer formulation, contact time 48 hour), 16. Besides, the “Ca (Component A alone)” value stood at 525 in assay [1] (Table 11, Glutaraldehyde alone, contact time 3 days); 650 in assay [1] (Table 11, Glutaraldehyde alone, contact time 7 days); 16 in assay [2] (setting [11]); 20 in assay [2] (setting [12]); 13 in assay [3] (setting [11]); 20 in assay [3] (setting [12]). Besides, the “Ca (Component A alone)” value in assay [4] (setting [11]) and in assay [4] (setting [12]) was 88 in each case.

With `OO` [Hydrogen Peroxide], the “Ca (Component A in combination)” value in assay [1] (Hydrogen Peroxide combined with Ag-polymer formulation, contact time 7 days) is 1300 and 1050; in assay [2] (setting [13]) it was 255; in assay [2] (Hydrogen Peroxide combined with Ag-polymer formulation, contact time 48 hour), 390 and 315 and 255; in assay [3] (setting [13]), 53 and 39; in assay [4] (contact time 24 hour), 105 and 85; in assay [4] (contact time 48 hour), 85. In addition, the “Ca (Component A alone)” value in assay [1] (Table 9, Hydrogen Peroxide alone, contact time 3 days) turned out to be 1300; in assay [1] (Table 9, Hydrogen Peroxide alone, contact time 7 days), 1750; in assay [2] (setting [14]) it was 315; in assay [2] (setting [15]) it was 525; in assay [3] (setting [14]) it was 66; in assay [3] (setting [15]), 180. Besides, the “Ca (Component A alone)” value in assay [4] (setting [14]) and in assay [4] (setting [15]) was 130 throughout.

Consider `Cn1sccc1=O` [MIT, 2-methyl-4-isothiazolin-3-one, reference compound], for which the minimal inhibitory concentration (MIC) turned out to be 493 µg/mL in assay [1] (ATCC16404, 72 h); 603 µg/mL in assay [1] (ATCC16404, 168 h); 24.7 µg/mL in assay [2] (Pseudomonas aeruginosa, ATCC15442, 48 h, read-out: MIC of component acting alone (end point)); 34.5 µg/mL in assay [3] (ATCC6538, 24 h); 34.5 µg/mL in assay [3] (ATCC6538, 48 h); 288 µg/mL in assay [4] (ATCC10231, 24 h). In addition, in assay [4] (ATCC10231, 48 h), the MIC was found to be 403 µg/mL.

For `OCl` [Sodium hypochlorite], the “Ca (Component A alone)” value in assay [1] (Table 10, Sodium hypochlorite alone, as Free Cl2, contact time 3 days) is 26; in assay [1] (Table 10, Sodium hypochlorite alone, as Free Cl2, contact time 7 days), 35; in assay [2] (setting [17]) it was 0.7; in assay [2] (setting [18]) it was 0.9; in assay [3] (setting [17]) it was 0.4; in assay [3] (setting [18]), 0.7. For the same compound, the “Ca (Component A alone)” value in assay [4] (setting [17]) turned out to be 0.9; in assay [4] (setting [18]), 2. The “Ca (Component A in combination)” value in assay [2] (Sodium hypochlorite (as Free Cl2) combined with Ag-polymer formulation, contact time 24 hour) was 0.5; in assay [2] (setting [16]), 0.7; in assay [3] (setting [16]), 0.5.

Regarding `CC(C)(C)CC(C)(C)c1ccc(OCCOCC[N+](C)(C)Cc2ccccc2)cc1.[Cl-]` [diisobutylphenoxyethoxyethyl dimethylbenzylammonium chloride, reference compound], the “MIC … (end point)” value in assay [1] (contact time 7 days) was found to be 40.3 ppm; in assay [3] (contact time 24 hour) it was 28.8 ppm; in assay [3] (contact time 48 hour) it was 40.3 ppm; in assay [4] (contact time 48 hour), 28.8 ppm; in assay [5] (contact time 24 hour) it was 19.4 ppm.

Regarding “C9-C15 alkyltolylmethyltrimethylammonium chloride [reference compound]”, the “MIC … (end point)” value is 493 ppm in assay [1] (contact time 7 days); 19.4 ppm in assay [2] (contact time 24 hour); 19.4 ppm in assay [2] (contact time 48 hour); 69 ppm in assay [3] (contact time 24 hour); 98 ppm in assay [4] (contact time 24 hour); 6 ppm in assay [5] (contact time 24 hour). The “MIC … (end point)” value in assay [5] (contact time 48 hour) worked out at 6 ppm.
